Source: patent US11684582B2, “Method for stabilizing humidity-sensitive pharmaceutical substance and stabilized preparation thereof” (Delta-Fly Pharma, Inc., priority 2021, dated 2023)

Tests used:
[1] = system: patients having a solid cancer; conditions: phase-I trial, patients with solid cancer; cited from earlier work
[2] = stability test in acceleration conditions (25° C./humidity 60%): appearance, purity and analogs by HPLC, water content, disintegration time, microbial content; format: physicochemical
cancer-bearing nude rats = conditions: oral, versus TS-1; cited from earlier work
[3] = bulk drug, 25° C./60% RH, after 3 months

CCOCn1cc(F)c(=O)n(C(=O)c2cccc(C(=O)Oc3cc(OC(=O)c4cc(OC(=O)CC)nc(OC(=O)CC)c4)c(Cl)cn3)c2)c1=O [DFP-11207]
safety (serious gastrointestinal toxicity, reduced blood platelet count) [1]: none of serious gastrointestinal toxicity such as diarrhea and toxicity of reduced blood platelet count were observed | stable period (specifications satisfied) ([2]; acceleration conditions (25° C./humidity 60%)): ≤ 3 months | Analog (% area): Analog-1 (RRT 0.42) [2, 3]: 0.18% | Analog (% area): Impurity 1 (RRT 0.49) [2, 3]: 0.73% | Analog (% area): Impurity 2 (RRT 0.74) [2, 3]: 2.13% | Analog (% area): Impurity 3 (RRT 0.83) [2, 3]: 0.49% | Analog (% area): Impurity 4 (RRT 1.13) [2, 3]: 0.86% | Analog (% area): Total impurities [2, 3]: 5.8% | Analog (% area): relative elution time 0.30 [2, 3]: 0.27% | Analog (% area): relative elution time 0.80 [2, 3]: 0.21% | Analog (% area): relative elution time 0.88 [2, 3]: 0.07% | Analog (% area): relative elution time 0.89 [2, 3]: 0.05% | Analog (% area): relative elution time 0.90 [2, 3]: 0.10% | Analog (% area): relative elution time 0.92 [2, 3]: 0.15% | Analog (% area): relative elution time 0.93 [2, 3]: 0.13% | Analog (% area): relative elution time 0.94 [2, 3]: 0.05% | Analog (% area): relative elution time 1.03 [2, 3]: 0.22% | Analog (% area): relative elution time 1.29 [2, 3]: 0.06% | Analog (% area): relative elution time 1.30 [2, 3]: 0.09% | Appearance [2, 3]: Grayish-white | Purity (% area) [2, 3]: 94.0% | Water content [2, 3]: 0.2% | Passing status: Appearance ([2]; bulk drug, 25° C./60% RH, after 3 months, specification Grayish-white to pale yellow): Passed | Passing status: Water content ([2]; bulk drug, 25° C./60% RH, after 3 months, specification ≤0.5%): Passed | Passing status: Analog, individual impurities ([2]; bulk drug, 25° C./60% RH, after 3 months, specification ≤1.0%): Not | Passing status: Total impurities ([2]; bulk drug, 25° C./60% RH, after 3 months, specification ≤4.0%): Not | therapeutic effects (cancer-bearing nude rats): more excellent than TS-1
